# In publication PMC7006505, “Chemical biology tools for probing transcytosis at the blood–brain barrier” (Chemical Science, 2019):
# Bridge positions count the residues as written; N and C are the ends. Square brackets hold non-standard residues; d marks the D form. Triazole bridges read from a SMILES are 1,4-linked. Ends that are not written are not given here. I, II: the chains in the order shown. * marks the point of attachment. 5FAM = O=C1OC2(c3ccc(O)cc3Oc3cc(O)ccc32)c2ccc(C(=O)*)cc21; Lys(N3) = [N-]=[N+]=NCCCC[C@H](N)C(=O)O; Pra = C#CC[C@H](N)C(=O)O
# Tested on: bEnd.3/MSC co-culture
# Test: Transcytosis assay, transwell in vitro BBB model with dex-TexR correction (cPapp)
# Format: in vitro ADME, mouse
# Settings: apical to basolateral; for fold increase in permeability (cPapp) relative to Tf-A647: bEnd.3/MSC co-culture on polyester transwell inserts (0.4 µm pore), 0.5 µM vehicle with 5 µM dex-TexR (3000 Da), DMEM without FCS after 1 h serum starvation, three inserts with and without culture, paracellular contribution subtracted; for fold increase in permeability (cPapp) relative to Tf-A647 / cPapp at 4 °C: fluorescence read-out; for cPapp at 4 °C: FAM-labelled vehicle co-incubated with dex-TexR, corrected for paracellular diffusion
# Text: To study transcytosis potential of the vehicles in vitro we optimised a BBB model using a 3D-transwell format. […] This is similar to results shown by others.[16] Immunostaining for TJ protein ZO-1 in the bEnd.3 cell line confirmed its presence and trafficking towards the cell junctions (Fig. S7 ^†).
# It seemed plausible that a similar sized marker (such as TexasRed labelled dextran (dex-TexR; 3000 g mol^–1)) that is incapable of AMT or RMT uptake could serve as an internal standard to quantify paracellular contribution of the vehicles. As exemplified in Fig. 4A, experiments are performed in parallel with probes (both dex-TexR and FAM-PPII vehicle or Tf-A647) fed to insets containing either the cell monolayer (PSt) or filter alone (PSf). The corresponding Papp for dex-TexR in both scenarios is first calculated and the extent in which movement is reduced by presence of the monolayer (defined here as the transport ratio (TR)) is used to determine the expected paracellular diffusion rate of the individual vehicles. We employed Tf-A647 and a similarly sized TexasRed labelled dextran (dex-TexR; 70 000 g mol^–1) as a positive control for transcytosis. […] When incubated in the presence of cells, dex-TexR was detected in the basolateral compartment indicating background paracellular flux. However, Tf-A647 was cleared at a faster rate in comparison, confirming transcytosis of the molecule.
# Fig. 4 Modified workflow and results for determining the cPapp of a macromolecule, accounting for contributions made by paracellular diffusion across an in vitro barrier. […] (B–C) Clearance plots obtained by incubation of Tf-A647 or dex-TexR with filters alone (B; PSf) or with cells (C; PSt). […] Division of PSt/PSf for dextran generates the transport ratio (TR). Expected paracellular contribution of the vehicle is obtained by multiplying TR by the Papp of the compound of interest without cells. cPapp values are obtained by subtracting this value from Papp of compound with cells. Key: red = dex-TexR; blue = Tf-A647; dashed lines = filter insert only; solid lines = transwell culture (D) cPapp values for delivery vehicles screened in the transcytosis assay.
# (3 × 1 mL), and trypsinisation was conducted using a solution of 0.25 % (w/v) trypsin-EDTA solution (0.5 mL, 3 min, 37 °C, 5 % CO2 incubation), unless otherwise specified. When required, a Scan Speed 1580R centrifuge (Labmode) was used to pellet cell suspensions. All tissue culture work was performed in sterilised Corning well plates, and cell based assays used DMEM media (ThermoFisher, #31053028) without FCS and phenol red, unless otherwise specified. bEND.3 cells were a gift from Rachael Brown (Kings College London), while MSC cells were a gift from the Battaglia group (University College London).
# Cells were maintained in high glucose Dulbecco’s Modified Eagle’s Medium (DMEM) (ATCC #30-2002) supplemented with 10 % FCS. Cells were sub-cultured routinely using trypsin solution once 100 % confluence was achieved. For uptake and transcytosis studies, cells under passage number 30 were used. After this time, these cells may begin to lose their barr ier functionality, as identified from an extensive study performed by Brown et al.1 Mesenchymal stem cells (MSC)
# MSC, as surrogates for pericytes, were maintained in DMEM/F12 medium containing GlutaMAX and L-glutamine (2 mM) (ThermoFisher, #10565-018), supplemented with 10 % FCS and 5 μg/mL Gentamicin (SIGMA, G1397). Cultures were sub -cultured routinely using trypsin solution once 70 -80 % confluence was achieved.
# For all transcytosis assays, polyester filter inserts (Corning, #3460; 0.4 µm pore, 12 mm diameter, 10 µm thick) were used in 12-well cell culture plates. Optimum media volumes were calculated to be 950 µL and 475 µL for apical and basolateral chambers respectively. Both chambers were coated with rat tail collagen (5 µg/cm2) for 2 h at room temperature prior to use. bEND.3 cells were seeded at a density of 2 × 10^4 cells/well onto insets, and grown to […]
Compound,fold increase in permeability (cPapp) relative to Tf-A647 (37 °C) [fold],"transcytosis / permeability in BBB model, in words (bEnd.3/MSC transwell, 0.5 µM vehicle, 37 °C, cPapp)",cPapp at 4 °C (bEnd.3/MSC transwell) [cm/min x 10^-5]
CC[C@H](C)[C@H](NC(=O)[C@H](C)NC(=O)[C@@H](N)Cc1c[nH]cn1)C(=O)N[C@@H](Cc1ccc(O)cc1)C(=O)N1CCC[C@H]1C(=O)N[C@@H](CCCNC(=N)N)C(=O)N[C@@H](Cc1c[nH]cn1)C(=O)NCCCC[C@H](NC(=O)[C@H](CCCNC(=N)N)NC(=O)[C@@H](NC(=O)[C@@H]1CCCN1C(=O)[C@@H]1CCCN1C(=O)[C@@H]1CCCN1C(=O)[C@H](CC(C)C)NC(=O)[C@H](CCCNC(=N)N)NC(=O)[C@@H](NC(=O)[C@@H]1CCCN1C(=O)[C@@H]1CCCN1C(=O)[C@@H]1CCCN1C(=O)[C@H](Cc1cn(CCCC[C@H](N)C(=O)N[C@H](C(=O)N[C@@H](Cc2ccccc2)C(=O)N[C@@H](Cc2ccccc2)C(=O)N[C@@H](Cc2ccc(O)cc2)C(=O)NCC(=O)NCC(=O)N[C@@H](CO)C(=O)N[C@@H](CCCNC(=N)N)C(=O)NCC(=O)N[C@@H](CCCCN)C(=O)N[C@@H](CCCNC(=N)N)C(=O)N[C@@H](CC(N)=O)C(=O)N[C@@H](CC(N)=O)C(=O)N[C@@H](Cc2ccccc2)C(=O)N[C@@H](CCCCN)C(=O)N[C@H](C(=O)N[C@@H](CCC(=O)O)C(=O)N[C@@H](CCC(=O)O)C(=O)N[C@@H](Cc2ccc(O)cc2)C(N)=O)[C@@H](C)O)[C@@H](C)O)nn1)NC(=O)[C@H](CCCNC(=N)N)NC(=O)[C@@H](NC(=O)c1ccc2c(c1)C(=O)OC21c2ccc(O)cc2Oc2cc(O)ccc21)C(C)C)C(C)C)C(C)C)C(=O)N1CCC[C@H]1C(=O)N1CCC[C@H]1C(=O)N1CCC[C@H]1C(N)=O [PPII(L3X;L15K)TfRL2(K);APep2(X)],1.8,–,–
CC(C)C[C@H](NC(=O)[C@H](CCCNC(=N)N)NC(=O)[C@@H](NC(=O)[C@@H]1CCCN1C(=O)[C@@H]1CCCN1C(=O)[C@@H]1CCCN1C(=O)[C@H](Cc1cn(CCCC[C@H](N)C(=O)N[C@H](C(=O)N[C@@H](Cc2ccccc2)C(=O)N[C@@H](Cc2ccccc2)C(=O)N[C@@H](Cc2ccc(O)cc2)C(=O)NCC(=O)NCC(=O)N[C@@H](CO)C(=O)N[C@@H](CCCNC(=N)N)C(=O)NCC(=O)N[C@@H](CCCCN)C(=O)N[C@@H](CCCNC(=N)N)C(=O)N[C@@H](CC(N)=O)C(=O)N[C@@H](CC(N)=O)C(=O)N[C@@H](Cc2ccccc2)C(=O)N[C@@H](CCCCN)C(=O)N[C@H](C(=O)N[C@@H](CCC(=O)O)C(=O)N[C@@H](CCC(=O)O)C(=O)N[C@@H](Cc2ccc(O)cc2)C(N)=O)[C@@H](C)O)[C@@H](C)O)nn1)NC(=O)[C@H](CCCNC(=N)N)NC(=O)[C@@H](NC(=O)c1ccc2c(c1)C(=O)OC21c2ccc(O)cc2Oc2cc(O)ccc21)C(C)C)C(C)C)C(=O)N1CCC[C@H]1C(=O)N1CCC[C@H]1C(=O)N1CCC[C@H]1C(=O)N[C@H](C(=O)N[C@@H](CCCNC(=N)N)C(=O)N[C@@H](Cc1cn(CCCC[C@H](N)C(=O)N[C@H](C(=O)N[C@@H](Cc2ccccc2)C(=O)N[C@@H](Cc2ccccc2)C(=O)N[C@@H](Cc2ccc(O)cc2)C(=O)NCC(=O)NCC(=O)N[C@@H](CO)C(=O)N[C@@H](CCCNC(=N)N)C(=O)NCC(=O)N[C@@H](CCCCN)C(=O)N[C@@H](CCCNC(=N)N)C(=O)N[C@@H](CC(N)=O)C(=O)N[C@@H](CC(N)=O)C(=O)N[C@@H](Cc2ccccc2)C(=O)N[C@@H](CCCCN)C(=O)N[C@H](C(=O)N[C@@H](CCC(=O)O)C(=O)N[C@@H](CCC(=O)O)C(=O)N[C@@H](Cc2ccc(O)cc2)C(N)=O)[C@@H](C)O)[C@@H](C)O)nn1)C(=O)N1CCC[C@H]1C(=O)N1CCC[C@H]1C(=O)N1CCC[C@H]1C(N)=O)C(C)C [PPII(L3X;L15X)APep2],–,limited transcytosis,–
CC(C)C[C@H](NC(=O)[C@H](CCCNC(=N)N)NC(=O)[C@@H](NC(=O)[C@@H]1CCCN1C(=O)[C@@H]1CCCN1C(=O)[C@@H]1CCCN1C(=O)[C@H](CC(C)C)NC(=O)[C@H](Cc1cn(CCCC[C@H](N)C(=O)N[C@H](C(=O)N[C@@H](Cc2ccccc2)C(=O)N[C@@H](Cc2ccccc2)C(=O)N[C@@H](Cc2ccc(O)cc2)C(=O)NCC(=O)NCC(=O)N[C@@H](CO)C(=O)N[C@@H](CCCNC(=N)N)C(=O)NCC(=O)N[C@@H](CCCCN)C(=O)N[C@@H](CCCNC(=N)N)C(=O)N[C@@H](CC(N)=O)C(=O)N[C@@H](CC(N)=O)C(=O)N[C@@H](Cc2ccccc2)C(=O)N[C@@H](CCCCN)C(=O)N[C@H](C(=O)N[C@@H](CCC(=O)O)C(=O)N[C@@H](CCC(=O)O)C(=O)N[C@@H](Cc2ccc(O)cc2)C(N)=O)[C@@H](C)O)[C@@H](C)O)nn1)NC(=O)[C@@H](NC(=O)[C@@H]1CCCN1C(=O)[C@@H]1CCCN1C(=O)[C@@H]1CCCN1C(=O)[C@H](CC(C)C)NC(=O)[C@H](CCCNC(=N)N)NC(=O)[C@@H](NC(=O)c1ccc2c(c1)C(=O)OC21c2ccc(O)cc2Oc2cc(O)ccc21)C(C)C)C(C)C)C(C)C)C(=O)N1CCC[C@H]1C(=O)N1CCC[C@H]1C(=O)N1CCC[C@H]1C(N)=O [PPII(R8X)APep2],4.9,–,-0.058
CC[C@H](C)[C@H](NC(=O)[C@H](C)NC(=O)[C@H](Cc1c[nH]cn1)NC(=O)[C@@H](N)CCCCn1cc(C[C@H](NC(=O)[C@@H](NC(=O)[C@@H]2CCCN2C(=O)[C@@H]2CCCN2C(=O)[C@@H]2CCCN2C(=O)[C@H](CC(C)C)NC(=O)[C@H](CCCNC(=N)N)NC(=O)[C@@H](NC(=O)c2ccc3c(c2)C(=O)OC32c3ccc(O)cc3Oc3cc(O)ccc32)C(C)C)C(C)C)C(=O)N[C@@H](CC(C)C)C(=O)N2CCC[C@H]2C(=O)N2CCC[C@H]2C(=O)N2CCC[C@H]2C(=O)N[C@H](C(=O)N[C@@H](CCCNC(=N)N)C(=O)N[C@@H](CC(C)C)C(=O)N2CCC[C@H]2C(=O)N2CCC[C@H]2C(=O)N2CCC[C@H]2C(N)=O)C(C)C)nn1)C(=O)N[C@@H](Cc1ccc(O)cc1)C(=O)N1CCC[C@H]1C(=O)N[C@@H](CCCNC(=N)N)C(=O)N[C@@H](Cc1c[nH]cn1)C(N)=O [PPII(R8X)TfRL2],1.4,–,-0.085
"I: 5FAM-VR[Pra]PPPVRLPPPVR[Pra]PPP-NH2 / II: [Lys(N3)]THRPPMWSPVWP-NH2 / III: [Lys(N3)]THRPPMWSPVWP-NH2 (triazole I:3-III:1, I:15-II:1) [PPII(L3X;L15X)TfRL1]",3.0,–,-0.079
"I: 5FAM-VR[Pra]PPPVRLPPP[Pra]RLPPP-NH2 / II: [Lys(N3)]THRPPMWSPVWP-NH2 / III: [Lys(N3)]THRPPMWSPVWP-NH2 (triazole I:3-III:1, I:13-II:1) [PPII(L3X;V13X)TfRL1]",3.5,–,–
Tf-A647: human derived AlexaFluor 647-conjugated transferrin [reference compound],–,–,0.09
